According to patent US20220175809A1, “TREATMENT AND PREVENTION OF INFECTIONS BY HERPESVIRIDAE WITH DELPHINIDIN-3-GLUCOSIDE” (Evonik Operations GmbH, priority 2019, published 2022):

Tests used:
HSV-1 = experiment: Anti-viral assay, GFP-encoding HSV-1 infection of BHK cells (infected cells counted); assay type: cell-based, herpes simplex virus 1; settings: BHK cells treated with anthocyanins, then GFP-encoding HSV-1
Procedure: (§1) BHK cells were incubated with decreasing concentration of the solubilized test compounds for approx. 1 h. All concentrations were analyzed by six independent replicates on a black 96 well plate (PerkinElmer). Cells were infected with GFP-encoding wildtype HSV-1 virus and incubated for two days. Two days after infection, HSV-1-infected cells and GFP expressing cells were directly counted using the PerkinElmer Ensight system with optical cell culture plates. The instrument was controlled by manual counting. Anti-viral assays for HHV8 were performed accordingly. To not only analyze the virus entry and early phase of virus replication of infection but also later phases of viral replication, the test assay was adjusted accordingly. BHK cells were incubated with test compounds and subsequently infected with HSV-1. Two days after infection supernatants were collected, centrifuged to remove detached cells and used to infect BHK cells. After two additional days infected cells were quantified using the Ensight system.
The cells were subsequently infected with GFP-encoding HSV at a multiplicity of infection of 2.5, and infected GFP-expressing cells were counted one day after infection using the PerkinElmer Ensight system. […] Thus, the sugar is not required as potential co-factor for drug uptake.

HHV-8 = experiment: Anti-viral assay, GFP-encoding HHV-8 infection (infected cells counted); assay type: cell-based, Herpes virus 8; settings: materials adjusted to same anthocyanin levels, counted two days after infection
Procedure: as §1
The concentrations of materials were again adjusted to the same levels of anthocyanins. No treatment or only maltodextrin served as controls. The cells were subsequently infected with GFP-encoding HHV-8, and infected GFP-expressing cells were counted two days after infection using the PerkinElmer Ensight system. […] The analysis of berry extract analogue without maltodextrin and the maltodextrin control confirmed again that the sugar moiety is not required as potential co-factor for drug uptake.

OC[C@H]1OC(Oc2cc3c(O)cc(O)cc3[o+]c2-c2cc(O)c(O)c(O)c2)[C@H](O)C(O)C1O (stereo partly shown) [D3G, Delphinidin-3-glucoside]
inhibition of HSV-1 (viral infectivity) (HSV-1): decreased viral infectivity like Healthberry® 865
suppression of HHV-8 viral infectivity (HHV-8): identified as an active ingredient
suppression of HHV-8 viral infectivity (HHV-8; listed as D3G derived from red grape extract): reduced the number of infected cells significantly
suppression of HHV-8 viral infectivity (HHV-8; listed as D3G from Healthberry® 865): reduced the number of infected cells significantly
